Experimental data: paper PMC5577244, “CD2068 potentially mediates multidrug efflux in Clostridium difficile” (Scientific Reports, 2017)
Like-named read-outs stand apart in the source and are kept apart here.

Target: T1, CD2068 (Clostridioides difficile, UniProt Q188D7)
T1 construct: gene CD630_20680; full coding region in pET28a (NcoI/EcoRI), C-terminal His6 tag kept; expressed in E. coli BL21(DE3) pLysS; inside-out membrane vesicles; ~60 kDa
Assay: vanadate-sensitive ATPase stimulation, inside-out membrane vesicles, phosphate release
Assay type: biochemical
Description: vanadate-sensitive ATPase stimulation, inside-out membrane vesicles, phosphate release on CD2068

T1 sequence (Q188D7 entry or part of it): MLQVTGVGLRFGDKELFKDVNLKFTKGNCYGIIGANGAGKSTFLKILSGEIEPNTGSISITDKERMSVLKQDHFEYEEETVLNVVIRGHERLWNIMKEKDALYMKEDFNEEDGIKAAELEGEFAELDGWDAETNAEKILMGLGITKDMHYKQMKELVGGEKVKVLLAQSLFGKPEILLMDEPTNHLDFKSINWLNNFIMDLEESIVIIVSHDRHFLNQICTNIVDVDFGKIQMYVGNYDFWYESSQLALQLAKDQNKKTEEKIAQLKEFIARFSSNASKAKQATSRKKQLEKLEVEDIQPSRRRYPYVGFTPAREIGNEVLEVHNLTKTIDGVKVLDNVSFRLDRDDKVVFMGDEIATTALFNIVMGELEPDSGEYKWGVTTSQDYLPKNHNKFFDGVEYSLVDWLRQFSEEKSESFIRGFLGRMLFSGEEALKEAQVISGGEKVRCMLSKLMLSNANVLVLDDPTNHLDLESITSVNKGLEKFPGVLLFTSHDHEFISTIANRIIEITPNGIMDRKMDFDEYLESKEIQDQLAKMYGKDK

| Compound | EC50 [µM] | EC50 (read-out: ATPase activity / SC50) [µM] |
| --- | --- | --- |
| CC1(C)S[C@@H]2[C@H](NC(=O)[C@H](N)c3ccccc3)C(=O)N2[C@H]1C(=O)O [Ampicillin] | 4.4 |  |
| Cc1onc(-c2ccccc2Cl)c1C(=O)N[C@@H]1C(=O)N2[C@@H]1SC(C)(C)[C@@H]2C(=O)O [Cloxacillin] | 3 |  |
| C[C@H]1COc2c(N3CCN(C)CC3)c(F)cc3c(=O)c(C(=O)O)cn1c23 [Levofloxacin] |  | 4.5 ± 1 |
| CC[C@H]1OC(=O)[C@H](C)[C@@H](O[C@H]2C[C@@](C)(OC)[C@@H](O)[C@H](C)O2)[C@H](C)[C@@H](O[C@@H]2O[C@H](C)C[C@H](N(C)C)[C@H]2O)[C@](C)(O)C[C@@H](C)/C(=N\OCOCCOC)[C@H](C)[C@@H](O)[C@]1(C)O [Roxithromycin] | 2.9 |  |
| CN[C@H](CC(C)C)C(=O)N[C@H]1C(=O)N[C@@H](CC(N)=O)C(=O)N[C@H]2C(=O)N[C@H]3C(=O)N[C@H](C(=O)N[C@H](C(=O)O)c4cc(O)cc(O)c4-c4cc3ccc4O)[C@H](O)c3ccc(c(Cl)c3)Oc3cc2cc(c3O[C@@H]2O[C@H](CO)[C@@H](O)[C@H](O)[C@H]2O[C@H]2C[C@](C)(N)[C@H](O)[C@H](C)O2)Oc2ccc(cc2Cl)[C@H]1O [Vancomycin] | 3.4 ± 1 |  |
| CO[C@@]1(NC(=O)Cc2cccs2)C(=O)N2C(C(=O)O)=C(COC(N)=O)CS[C@@H]21 [Cefoxitin] | 7.6 ± 1 |  |
